Assay results: patent publication US8314079B2, “Hyaluronic acid oligosaccharide fractions and drugs containing the same” (Seikagaku Corporation, priority 2000, dated 2012)

Test system: HSF1
Assay: Phosphorylation (activation) of HSF1 in heat-shocked K562 cells, band shift 66 kDa to 81 kDa by SDS-PAGE/Western blotting
Assay type: cell-based, human
Source text: It is known that HSF1 (heat shock factor 1) protein is a transcription factor of Hsp70 (J. Biol. Chem., 271, pp. 3355-3358, 1996). Moreover, the HSF1 protein can be activated by phosphorylation, and this phosphorylation can be detected based on band shift in SDS-polyacrylamide gel electrophoresis (SDS-PAGE) (apparent molecular weight shifts from about 66 kDa to about 81 kDa). By utilizing this fact, the HA oligosaccharides of various sizes were allowed to act on the K562 cells given with stress, and the aforementioned band shift was detected to investigate the degree of the phosphorylation (activation) of HSF1.
HA4, ΔHA4, HA6, HA8, HA2-18 and HA 8-14 were each added to a medium containing the aforementioned cells at a concentration of 1, 10 or 100 ng/mL. Then, the cells were immediately transferred into an environment at 42° C. to be given with heat shock and incubated for 20 minutes. After the incubation, the cells were collected by centrifugation, and SDS-PAGE (gel concentration: 10%) was performed. Thereafter, Western blotting was performed by using anti-HSF1 monoclonal antibodies (produced by Stressgene) as primary antibodies and goat anti-mouse IgG monoclonal antibodies (produced by Jackson Lab) as secondary antibodies to detect the shift of a band of 66 kDa (HSF1 not phosphorylated) to a band of 81 kDa (phosphorylated HSF1).
In order to confirm the reproducibility of Experiment 1, the band shift was detected in the same manner as in Experiment 1 by using HA4, ΔHA4, HA8 and HA84 except that HA was added in a single kind of amount of 100 ng/mL, and the heat shock was given at 43° C. In FIG. 41, the first lane from the left indicates the result obtained with an extract of cells incubated at 37° C. (no addition of HA oligosaccharide), the second lane indicates the result obtained with an extract of cells subjected to 43° C. (no addition of HA oligosaccharide), and the first lane from the right indicates the result of detection of HSF1 (derived from bacteria) as a standard.
In order to investigate whether the action observed in Experiment 2 was specific to the saccharide chain basic structure of HA oligosaccharides, the following comparative experiment was performed by using chondroitin oligosaccharides. […] Therefore, it can be said that Ch is a substance extremely structurally analogous to HA, and the same shall also apply to the oligosaccharides thereof. • Saturated Ch tetrasaccharide (Ch4) • GlcAβ1-3GalNAcβ1-4GlcAβ1-3GalNAc • Saturated Ch hexasaccharide (Ch6) • GlcAβ1-3GalNAcβ1-4GlcAβ1-3GalNAcβ1-4GlcAβ1-3GalNAc • Saturated Ch octasaccharide (Ch8) • GlcAβ1-3GalNAcβ1-4GlcAβ1-3GalNAcβ1-4GlcAβ1-3GalNAcβ1-4GlcAβ1-3GalNAc
The same experiment as Experiment 2 was performed by using these oligosaccharides.

[1] = Experiment 2 (and comparative Experiment 3), 100 ng/mL, heat shock 43° C.

CC(=O)N[C@H]1[C@H](O[C@H]2[C@H](O)[C@@H](O)[C@H](O[C@H]3[C@H](O)[C@@H](CO)OC(O)[C@@H]3NC(C)=O)O[C@@H]2C(=O)O)O[C@H](CO)[C@@H](O)[C@@H]1O[C@@H]1O[C@H](C(=O)O)[C@@H](O)[C@H](O)[C@H]1O.[Na].[Na] (stereo partly drawn) [HA4, sodium β-D-glucopyranosyluronate-(1→3)-2-acetamido-2-deoxy-β-D-glucopyranosyl-(1→4)-(sodium β-D-glucopyranosyluronate)-(1→3)-2-acetamido-2-deoxy-D-glucopyranose] was tested, and the “shift of a band of 66 kDa (HSF1 not phosphorylated) to a band of 81 kDa (phosphorylated HSF1)” value (Experiment 1, 1, 10 or 100 ng/mL, heat shock 42° C., 20 minutes) was “shift to the 81 kDa band was observed depending on the amount of the added HA oligosaccharide”, the “amount of HSF1 per se” value [1] was “amounts of both HSF1 of 66 kDa and 81 kDa per se were also increased” and the “band shift of HSF1 (66 kDa to 81 kDa)” value [1] was “band shift was observed”.
